Here are results for one compound from US9994560B2, “HPTP-β inhibitors” (Aerpio Therapeutics Inc., priority 2014, dated 2018).

Values after ≈ are worked out from the molar mass of the structure shown. Values joined by “and” are separate entries in the source; they are usually repeats but may differ in a detail not shown here. Identical values can stand only once.

Series [1] deals with Tie2. The series can be described thus: Tie2 phosphorylation, immunoprecipitation and western blot in HUVECs. Particulars: HUVECs treated for 10 minutes; anti-phosphotyrosine western blot (FIG. 44). It counts as cell-based, human. Here is the method: Human umbilical vein endothelial cells (HUVECs) were isolated freshly from human placenta, grown in endothelial growth medium, and used before passage 6. To evaluate the effects of the compounds on phosphorylation of Tie2 and downstream signaling molecules, cells were serum-starved in endothelial basal medium without added growth factors for 3 hours before stimulation. Cells were treated for 10 minutes with vehicle (DMSO), or compounds A, B, C, or D in DMSO. Cells were lysed in RIPA buffer (150 mM NaCl, 1% IGEPAL CA-630, 0.05% sodium deoxycholate, 0.1% SDS, 20 mM Tris-HCl at pH 7.6, 1 mM EDTA, 1 mM NaF, 1 mM sodium orthovanadate, 5 mM benzamidine) plus complete protease inhibitor cocktail tablets. […] Whole cell lysates were used to quantify phospho-AKT with the PathScan Phospho-Akt1 (Ser473) Sandwich ELISA Kit according to the manufacturer's instructions. Relative AKT phosphorylation in each experiment was quantified by OD450.
FIG. 44 is a western blot of Tie2 immunoprecipitated from endothelial cells treated with DMSO control or the indicated compounds (D, C, B, or A), and then sequentially probed with an anti-Tie2 antibody to detect total Tie2 (lower blot) and an anti-phosphotyrosine antibody to detect phosphorylated Tie2 (upper blot). […] An increase in Tie2 phosphorylation compared to the DMSO control was not detected for compounds A, B, and C.
In general terms: Immunoblotting shows a protein as a band on a membrane.

The subject of series [2] is Akt phosphorylation, a measure of Tie2 activation. Kind of series: Akt phosphorylation ELISA (PathScan Phospho-Akt1 (Ser473) Sandwich ELISA) in HUVECs. The format is cell-based, human. Conditions: 10 minutes. On the procedure:
Human umbilical vein endothelial cells (HUVECs) were isolated freshly from human placenta, grown in endothelial growth medium, and used before passage 6. To evaluate the effects of the compounds on phosphorylation of Tie2 and downstream signaling molecules, cells were serum-starved in endothelial basal medium without added growth factors for 3 hours before stimulation. Cells were treated for 10 minutes with vehicle (DMSO), or compounds A, B, C, or D in DMSO. Cells were lysed in RIPA buffer (150 mM NaCl, 1% IGEPAL CA-630, 0.05% sodium deoxycholate, 0.1% SDS, 20 mM Tris-HCl at pH 7.6, 1 mM EDTA, 1 mM NaF, 1 mM sodium orthovanadate, 5 mM benzamidine) plus complete protease inhibitor cocktail tablets. Tie2 was then immunoprecipitated from cell lysates with a mouse monoclonal antibody (clone 33) and probed sequentially with mouse monoclonal anti-phosphotyrosine (clone 4G10) and anti-Tie2 (clone 33). Whole cell lysates were used to quantify phospho-AKT with the PathScan Phospho-Akt1 (Ser473) Sandwich ELISA Kit according to the manufacturer's instructions. Relative AKT phosphorylation in each experiment was quantified by OD450.
FIG. 45 represents data from an ELISA to determine Akt phosphorylation, a measure of Tie2 activation. Consistent with FIG. 44, compound D had the strongest effect on Tie2 activation, as determined by the high levels (OD450=1.2) of relative Akt phosphorylation even at the lowest dose of compound D (1 μg/mL). […] Akt phosphorylation further increased (OD450=0.45) when 10 μg/mL of compound A was used.
For orientation: An ELISA detects its analyte on a solid surface through an enzyme-linked reagent.

Series [3] relates to human subjects with visual acuity loss due to diabetic macular edema. Kind of series: Study of human subjects with diabetic macular edema given the compound subcutaneously, then intravitreal anti-VEGF agent. It counts as in vivo. On the procedure: Described herein is a study of four human subjects with visual acuity loss due to diabetic macular edema (central retinal thickness [CRT] of more than 325 microns and best corrected visual acuity less than 70 letters) that were treated with subcutaneous injections of 5 mg of 4-{(S)-2-[(S)-2-methoxycarbonyl-amino]-3-phenylpropanamido]-2-[2-(thiophen-2-yl)thiazol-4-yl]ethyl}phenylsulfamic acid twice a day for 28 days. […] At any time during the course of the study, investigators could administer additional therapy of intravitreal injection of an anti-VEGF agent, for example, ranibizumab, bevacizumab, and/or aflibercept, if considered by the investigator to be medically necessary. Retinal thickness as measured by ocular coherence tomography and best-corrected visual acuity as measured by a standard vision test (ETDRS) were assessed at regular intervals during the 28 day active treatment phase and through the 2 month post-treatment observation phase, (Screening, Day 1 [baseline], Day 7, Day 14, Day 21, Day 28, Day 42, Day 56 and Day 84). The main efficacy outcomes for the study were change in CRT and visual acuity over time with treatment.
FIG. 47 depicts the results of a study wherein 4 patients received 5 mg of 4-{(S)-2-[(S)-2-methoxycarbonylamino]-3-phenylpropanamido]-2-[2-(thiophen-2-yl)thiazol-4-yl]ethyl}phenylsulfamic acid subcutaneously twice daily for 28 days and subsequently were treated in one or both eyes (7 eyes total) with either ranibizumab (0.3 or 0.5 mg) or aflibercept (2 mg) by intravitreal injection at the discretion of the study investigator.
FIG. 49 depicts the increased visual acuity of a study wherein 4 patients received 5 mg of 4-{(S)-2-[(S)-2-methoxycarbonylamino]-3-phenylpropanamido]-2-[2-(thiophen-2-yl)thiazol-4-yl]ethyl}phenylsulfamic acid subcutaneously twice daily for 28 days, and subsequently were treated with either ranibizumab (0.3 or 0.5 mg) or aflibercept (2 mg) by intravitreal injection at the discretion of the study investigator. FIG. 49 is read as follows. […] The mean change in Visual Acuity was 9 letters, approximately 3 to 5 letters more improvement than seen in the benchmark study of ranibizumab alone depicted in FIG. 48.
FIG. 50 represents the results of a single patient. The eye having the greater Central Foveal Thickness (CFT) was chosen as the study eye. From day 1, the patient was given 5 mg of 4-{(S)-2-[(S)-2-methoxycarbonylamino]-3-phenylpropanamido]-2-[2-(thiophen-2-yl)thiazol-4-yl]ethyl}phenylsulfamic acid subcutaneously twice daily. At week 3 (21 days, indicated by arrow) the fellow eye was treated with 0.5 mg of ranibizumab by injection. At week 6 (42 days, indicated by arrow) the study eye was treated with 0.5 mg of ranibizumab.
FIG. 51 represents the results of a single patient. The eye having the greater CFT was chosen as the Study Eye. The patient from day one was given 5 mg of 4-{(S)-2-[(S)-2-methoxycarbonylamino]-3-phenylpropanamido]-2-[2-(thiophen-2-yl)thiazol-4-yl]ethyl}phenylsulfamic acid subcutaneously twice daily. At week 4 (28 days, indicated by arrow) the fellow eye was rescued with 2 mg of aflibercept. […] At week 6 (42 days, indicated by arrow) the study eye was rescued with 2 mg of aflibercept. […] From onset of the study, a reduction was observed of CFT in the study eye and the fellow eye of approximately 300 μm and 280 μm, respectively.

Series [4] can be described thus: Room temperature aqueous solubility with solubilizing agents. The format is physicochemical. The text has this: The room temperature aqueous solubility (mg/mL) of the compound (4-{(S)-2[(S)-2-methoxycarbonylamino]-3-phenylpropanamido]-2-[2-(thiophen-2-yl)thiazol-4-yl]ethyl}phenylsulfamic acid) in water, HPβCD, Poloxamer 407, and sulfobutylether-β-cyclodextrin, is provided in TABLE III. Solubility in saline for the test compound is reduced presumably due to the common ion effect. All the solubilizing agents tested provided good improvements in aqueous solubility of the test compound.
The solubility (mg/mL) of the test compound in mixtures of HPβCD and PEG400 is illustrated in TABLE IV. Use of either HPβCD or PEG400 individually provided an increase in solubility. However, addition of PEG400 to a mixture of the test compound and HPβCD caused an erosion of solubility, with solubility being inversely proportional to the amount of PEG400.

As usually defined, the Solubility is the dissolved amount per volume that the medium holds. Consider `COC(=O)N[C@@H](Cc1ccccc1)C(=O)N[C@@H](Cc1ccc(NS(=O)(=O)O)cc1)c1csc(-c2cccs2)n1` [Compound D], for which the “Tie2 phosphorylation compared to the DMSO control” value in series [1] is recorded as “substantial increase”. The “relative Akt phosphorylation (OD450)” value in series [2] (1 μg/mL) is given as 1.2; in series [2] (3 μg/mL), 3.1; in series [2] (10 μg/mL) it was “did not increase further”. Also, the “Central Foveal Reduction, individual patient eyes” value in series [3] (5 mg sc twice daily 28 days, then ranibizumab or aflibercept intravitreal, 14-28 days post anti-VEGF (FIG. 47), listed as 4-{(S)-2-[(S)-2-methoxycarbonylamino]-3-phenylpropanamido]-2-[2-(thiophen-2-yl)t) was 50-100 μm and 150-200 μm and 200-250 μm and 300-350 μm and 350-400 μm and 450-500 μm. Also, the “improvement of visual acuity” value in series [3] (5 mg subcutaneously twice a day for 28 days, observed days 28 through 84) is listed as “Improvement of visual acuity in these subjects was observed”. The “reduction in Central Foveal Thickness relative to ranibizumab injection in the study in FIG. 46” value in series [3] (compound sc then anti-VEGF versus ranibizumab alone) is given as “approximately double”. The “fall in CFT of the fellow eye” value in series [3] (single patient (FIG. 50), 5 mg sc twice daily, fellow eye given 0.5 mg ranibizumab at week 3, by week 4) turned out to be 350 μm. For the same compound, the “reduction in CFT in the study eye” value in series [3] (single patient (FIG. 50), day 21 to day 28, after ranibizumab to fellow eye) is on record as “approximately 250 μm”. In addition, the “CFT of the study eye” value is reported as “approximately 775 μm” in series [3] (single patient (FIG. 50), week 6, before ranibizumab to study eye) and “approximately 225 μm” in series [3] (single patient (FIG. 50), week 8). In addition, the “reduction of CFT in the fellow eye from onset of the study” value in series [3] (single patient (FIG. 51)) is around 280 μm. The “Solubility” value in series [4] (0% HPβCD, 15% PEG400) was 30 mg/mL (≈ 51.1 mM); in series [4] (0% HPβCD, 30% PEG400), 68 mg/mL (≈ 116 mM); in series [4] (15% HPβCD, 0% PEG400) it was 59 mg/mL (≈ 101 mM); in series [4] (15% HPβCD, 5% PEG400) it was 57 mg/mL (≈ 97.2 mM); in series [4] (15% HPβCD, 10% PEG400) it was 34 mg/mL (≈ 57.9 mM); in series [4] (15% HPβCD, 15% PEG400), 6 mg/mL (≈ 10.2 mM).
